This passage reports IC50 cell viability results from the supplement of paper PMC12137928.

Structures can show the parent of a compound that is named as a salt.

The test concerns HCT116. The note with it: 72 h. The procedure, abridged: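 In 1536-well plates, 250 HCT116 cells per well were seeded and left for 5 h to attach. Luminescence from CellTiter-Glo was set against vehicle (0%) and positive control (-100%), and pattern correction was applied. IC50 and maximal efficacy come from four-parameter Hill fitting.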

`CCCN1C[C@H](C)[C@@H](O)[C@](C)(O)[C@@H](CC)OC(=O)[C@H](C)[C@@H](O[C@H]2C[C@@](C)(OC)[C@@H](O)[C@H](C)O2)[C@H](C)[C@@H](O[C@@H]2O[C@H](C)C[C@H](N(C)C)[C@H]2O)[C@](C)(O)C[C@H]1C` [Gamithromycin]: the IC50 cell viability reads like this: (ICRF193 0 nM) more than 45.8 µM; (ICRF193 200 nM) more than 45.8 µM.

Take `CN(C)c1cc(NC(=O)CNC(C)(C)C)c(O)c2c1C[C@H]1C[C@H]3[C@H](N(C)C)C(O)=C(C(N)=O)C(=O)[C@@]3(O)C(O)=C1C2=O` [Tigecycline]: the IC50 cell viability is more than 45.8 µM (ICRF193 0 nM) and more than 45.8 µM (ICRF193 200 nM).

`CCN1C(=O)c2ccccc2C1Nc1ccc(OCCN2CCCCC2)cc1` (centres undefined) [Etomidoline]: the IC50 cell viability reads like this: (ICRF193 0 nM) more than 45.8 µM; (ICRF193 200 nM) more than 45.8 µM.

As for `C=CCN1CC[C@]23c4c5ccc(O)c4O[C@H]2[C@@H](OCCOCCOCCOCCOCCOCCOCCOC)CC[C@@]3(O)[C@H]1C5` [Naloxegol (oxalate)], the IC50 cell viability is more than 45.8 µM (ICRF193 0 nM) and more than 45.8 µM (ICRF193 200 nM).

Consider `CS(=O)(=O)OCCCNCCCOS(C)(=O)=O` [Improsulfan tosylate], for which the IC50 cell viability by setting is: (ICRF193 0 nM) more than 45.8 µM; (ICRF193 200 nM) more than 45.8 µM.

`C[C@@H]1CN(c2c(F)c(F)c3c(=O)c(C(=O)O)cn(C4CC4)c3c2F)C[C@H](C)N1` [Orbifloxacin] returned an IC50 cell viability (ICRF193 0 nM) of more than 45.8 µM and an IC50 cell viability (ICRF193 200 nM) of more than 45.8 µM.

For the compound `CN(C)[C@@H]1C(O)=C(C(N)=O)C(=O)[C@@]2(O)C(O)=C3C(=O)c4c(O)cccc4[C@@](C)(O)[C@H]3C[C@@H]12` [Tetracycline hydrochloride], the IC50 cell viability by setting is: (ICRF193 0 nM) more than 45.8 µM; (ICRF193 200 nM) more than 45.8 µM.

Turning to `Nc1c(I)cc(I)c(C(=O)N(CCC(=O)O)c2ccccc2)c1I` [Iobenzamic acid], the IC50 cell viability by setting is: (ICRF193 0 nM) more than 45.8 µM; (ICRF193 200 nM) more than 45.8 µM.

Regarding `Cc1cn([C@@H]2C[C@@H](O)[C@H](CO)O2)c(=O)[nH]c1=O` [Telbivudine], the IC50 cell viability was more than 45.8 µM (ICRF193 0 nM) and more than 45.8 µM (ICRF193 200 nM).

As to `O=S(=O)(O)CCS` [Sodium 2-mercaptoethanesulfonate], the IC50 cell viability is more than 45.8 µM (ICRF193 0 nM) and more than 45.8 µM (ICRF193 200 nM).

`CC(N/C(=N\C#N)Nc1ccncc1)C(C)(C)C` (centres undefined) [PINACIDIL]: the IC50 cell viability reads like this: (ICRF193 0 nM) more than 45.8 µM; (ICRF193 200 nM) more than 45.8 µM.

`Cc1cc(N2CCN([C@@H]3CN[C@H](C(=O)N4CCSC4)C3)CC2)n(-c2ccccc2)n1` [Teneligliptin]: the IC50 cell viability was more than 45.8 µM (ICRF193 0 nM) and more than 45.8 µM (ICRF193 200 nM).

With `CC1CC(=O)NN=C1c1ccc(NCC(C)(C)NCC(O)COc2cc(Cl)ccc2C#N)cc1` (centres undefined) [Oberadilol], the IC50 cell viability is more than 45.8 µM (ICRF193 0 nM) and more than 45.8 µM (ICRF193 200 nM).

On to `CCc1cccc(CC)c1NC(=O)CN(CC(=O)O)CC(=O)O` [Etifenin], for which the IC50 cell viability is more than 45.8 µM (ICRF193 0 nM) and more than 45.8 µM (ICRF193 200 nM).

Turning to `NC[C@H]1O[C@H](O[C@H]2[C@H](O[C@@H]3O[C@H](CO)[C@@H](O)[C@H]3O)[C@@H](O)[C@H](N)C[C@@H]2N)[C@H](N)[C@@H](O)[C@@H]1O` [Ribostamycin sulfate], the IC50 cell viability was more than 45.8 µM (ICRF193 0 nM) and more than 45.8 µM (ICRF193 200 nM).

`Nc1nc2[nH]cc(CCc3ccc(C(=O)N[C@@H](CCC(=O)O)C(=O)O)cc3)c2c(=O)[nH]1` [Pemetrexed disodium heptahydrate]: the IC50 cell viability reads like this: (ICRF193 0 nM) more than 45.8 µM; (ICRF193 200 nM) more than 45.8 µM.

Take `CC(C)NCC(O)c1ccccc1Cl` (centres undefined) [Clorprenaline hydrochloride]: the IC50 cell viability was more than 45.8 µM (ICRF193 0 nM) and more than 45.8 µM (ICRF193 200 nM).

For `CCn1cc(C(=O)O)c(=O)c2ccc(C)nc21` [Nalidixic acid], the IC50 cell viability (ICRF193 0 nM) was more than 45.8 µM and the IC50 cell viability (ICRF193 200 nM) is more than 45.8 µM.

As for `C/C=C/C=C/C(=O)O` [Sorbic acid], the IC50 cell viability runs as follows: (ICRF193 0 nM) more than 45.8 µM; (ICRF193 200 nM) more than 45.8 µM.

For the compound `CC[N+](C)(C)Cc1ccccc1Br` [Bretylium tosylate], the IC50 cell viability (ICRF193 0 nM) was more than 45.8 µM and the IC50 cell viability (ICRF193 200 nM) is more than 45.8 µM.

As for `Cn1sc(Cl)cc1=O` [5-Chloro-2-methyl-3(2H)-isothiazolone], the IC50 cell viability reads like this: (ICRF193 0 nM) more than 45.8 µM; (ICRF193 200 nM) more than 45.8 µM.

Turning to `O=[N+]([O-])c1ccc([As](=O)(O)O)cc1` [Nitarsone], the IC50 cell viability was more than 45.8 µM (ICRF193 0 nM) and more than 45.8 µM (ICRF193 200 nM).

As to `Cc1ccc(S(=O)(=O)NC(=O)NN2CC3CCCC3C2)cc1` (centres undefined) [Gliclazide], the IC50 cell viability is more than 45.8 µM (ICRF193 0 nM) and more than 45.8 µM (ICRF193 200 nM).

Turning to `CO[C@@H]1[C@@H](OC(N)=O)[C@@H](O)[C@H](Oc2ccc3c(O)c(NC(=O)c4ccc(O)c(CC=C(C)C)c4)c(=O)oc3c2C)OC1(C)C` [Novobiocin sodium], the IC50 cell viability by setting is: (ICRF193 0 nM) more than 45.8 µM; (ICRF193 200 nM) more than 45.8 µM.

On to `CCCCCCCCCCCCCCCCCC(=O)O` [Octadecanoic acid], for which the IC50 cell viability is more than 45.8 µM (ICRF193 0 nM) and more than 45.8 µM (ICRF193 200 nM).

`CCC[C@@H]1C[C@@H](C(=O)N[C@@H]([C@H]2O[C@H](SC)[C@H](OP(=O)(O)O)[C@@H](O)[C@H]2O)[C@H](C)Cl)N(C)C1` [Clindamycin Phosphate] displayed an IC50 cell viability (ICRF193 0 nM) of more than 45.8 µM and an IC50 cell viability (ICRF193 200 nM) of more than 45.8 µM.

On to `C/C=C/c1ccc(OC)cc1` [Anethole], for which the IC50 cell viability by setting is: (ICRF193 0 nM) more than 45.8 µM; (ICRF193 200 nM) more than 45.8 µM.

With `CCCCC[C@H](O)/C=C/[C@@H]1[C@H]2C/C(=C/CCCC(=O)O)O[C@H]2C[C@H]1O` [Epoprostenol sodium], the IC50 cell viability is, setting by setting: (ICRF193 0 nM) more than 45.8 µM; (ICRF193 200 nM) more than 45.8 µM.

As for `CC(=O)CC(c1ccc([N+](=O)[O-])cc1)c1c(O)c2ccccc2oc1=O` (centres undefined) [Acenocoumarol], the IC50 cell viability (ICRF193 0 nM) was more than 45.8 µM and the IC50 cell viability (ICRF193 200 nM) is more than 45.8 µM.

On to `CC(=O)Nc1c(I)c(C(=O)O)c(I)c(N(C)C(C)=O)c1I` [Metrizoate sodium], for which the IC50 cell viability reads like this: (ICRF193 0 nM) more than 45.8 µM; (ICRF193 200 nM) more than 45.8 µM.

Regarding `O=C(O)Cc1cccc2ccccc12` [1-Naphthaleneacetic acid], the IC50 cell viability runs as follows: (ICRF193 0 nM) more than 45.8 µM; (ICRF193 200 nM) more than 45.8 µM.

`NC(=O)c1cnccn1` [Pyrazinamide]: the IC50 cell viability is, setting by setting: (ICRF193 0 nM) more than 45.8 µM; (ICRF193 200 nM) more than 45.8 µM.

As for `CCc1c(C)[nH]c2c1C(=O)C(CN1CCOCC1)CC2` (centres undefined) [Molindone hydrochloride], the IC50 cell viability was more than 45.8 µM (ICRF193 0 nM) and more than 45.8 µM (ICRF193 200 nM).

With `OCCOCCN1CCN(C2=Nc3ccccc3Sc3ccccc32)CC1` [Quetiapine], the IC50 cell viability runs as follows: (ICRF193 0 nM) more than 45.8 µM; (ICRF193 200 nM) more than 45.8 µM.

As for `CN[C@@H]1[C@H](O)[C@H](NC)[C@H]2O[C@@]3(O)C(=O)C[C@@H](C)O[C@H]3O[C@@H]2[C@H]1O` [Spectinomycin dihydrochloride], the IC50 cell viability is, setting by setting: (ICRF193 0 nM) more than 45.8 µM; (ICRF193 200 nM) more than 45.8 µM.

For the compound `COc1ccc([C@@H]2CC(=O)c3c(O)cc(O[C@@H]4O[C@H](CO[C@@H]5O[C@@H](C)[C@H](O)[C@@H](O)[C@H]5O)[C@@H](O)[C@H](O)[C@H]4O)cc3O2)cc1O` [Aurantiamarin (Methyl Hesperidin)], the IC50 cell viability by setting is: (ICRF193 0 nM) more than 45.8 µM; (ICRF193 200 nM) more than 45.8 µM.

Regarding `CCCCCCCCCC(=O)O` [Decanoic acid], the IC50 cell viability is, setting by setting: (ICRF193 0 nM) more than 45.8 µM; (ICRF193 200 nM) more than 45.8 µM.

With `O=C(/C=C/c1ccccc1)OCc1ccccc1` [Benzyl cinnamate], the IC50 cell viability was more than 45.8 µM (ICRF193 0 nM) and more than 45.8 µM (ICRF193 200 nM).

Take `N.N.O=C([O-])C[O-].[Pt+2]` [Nedaplatin]: the IC50 cell viability was more than 45.8 µM (ICRF193 0 nM) and more than 45.8 µM (ICRF193 200 nM).

In the case of `CC(C)=CCC/C(C)=C/CC/C(C)=C/CCC(=O)OC/C=C(\C)CCC=C(C)C` [Gefarnate], the IC50 cell viability reads like this: (ICRF193 0 nM) more than 45.8 µM; (ICRF193 200 nM) more than 45.8 µM.

`CCCCCCCCCC(=O)OC1(c2ccc(Cl)cc2)CCN(CCCC(=O)c2ccc(F)cc2)CC1` [HALOPERIDOL DECANOATE]: the IC50 cell viability was more than 45.8 µM (ICRF193 0 nM) and more than 45.8 µM (ICRF193 200 nM).

On to `CC(=O)N[C@H]1[C@H]([C@H](O)[C@H](O)CO)OC(C(=O)O)=C[C@@H]1NC(=N)N` [Zanamivir], for which the IC50 cell viability was more than 45.8 µM (ICRF193 0 nM) and more than 45.8 µM (ICRF193 200 nM).

`CC[C@@H](CO)NCCN[C@@H](CC)CO` [Ethambutol dihydrochloride] yielded an IC50 cell viability (ICRF193 0 nM) of more than 45.8 µM and an IC50 cell viability (ICRF193 200 nM) of more than 45.8 µM.

On to `CCOC(=O)[C@H](CCc1ccccc1)N[C@@H](C)C(=O)N1Cc2cc(OC)c(OC)cc2C[C@H]1C(=O)O` [Moexipril hydrochloride], for which the IC50 cell viability is more than 45.8 µM (ICRF193 0 nM) and more than 45.8 µM (ICRF193 200 nM).

In turn, `COc1c(N2CCNC(C)C2)c(F)cc2c(=O)c(C(=O)O)cn(C3CC3)c12` (centres undefined) [Gatifloxacin] yielded an IC50 cell viability (ICRF193 0 nM) of more than 45.8 µM and an IC50 cell viability (ICRF193 200 nM) of more than 45.8 µM.

For `CCOC(=O)/C=C(C)/C=C/C=C(C)/C=C/c1c(C)cc(OC)c(C)c1C` [Etretinate], the IC50 cell viability was more than 45.8 µM (ICRF193 0 nM) and more than 45.8 µM (ICRF193 200 nM).

The compound `CCC(=O)c1c(O)cc(O)cc1O` [Flopropione] yielded an IC50 cell viability (ICRF193 0 nM) of more than 45.8 µM and an IC50 cell viability (ICRF193 200 nM) of more than 45.8 µM.

With `N[C@H](Cc1c[nH]c2ccccc12)C(=O)O` [d-Tryptophan], the IC50 cell viability is, setting by setting: (ICRF193 0 nM) more than 45.8 µM; (ICRF193 200 nM) more than 45.8 µM.

For `N[C@@H](Cc1cc(I)c(Oc2ccc(O)c(I)c2)c(I)c1)C(=O)O` [Liothyronine Sodium], the IC50 cell viability reads like this: (ICRF193 0 nM) more than 45.8 µM; (ICRF193 200 nM) more than 45.8 µM.

As for `CCC(=O)Oc1ccc2c(c1)CCC1C2CCC2(C)C(OC(=O)CC)CCC12` (stereo not drawn) [17-BETA-ESTRADIOL 3,17-DIPROPIONATE], the IC50 cell viability by setting is: (ICRF193 0 nM) more than 45.8 µM; (ICRF193 200 nM) more than 45.8 µM.

On to `CN(C)CCCC1(c2ccc(F)cc2)OCc2cc(C#N)ccc21` (centres undefined) [Citalopram hydrobromide], for which the IC50 cell viability is, setting by setting: (ICRF193 0 nM) more than 45.8 µM; (ICRF193 200 nM) more than 45.8 µM.

With `CCNC(=O)NCCCOc1cccc(CN2CCCCC2)c1` [Dalcotidine], the IC50 cell viability reads like this: (ICRF193 0 nM) more than 45.8 µM; (ICRF193 200 nM) more than 45.8 µM.
